Measured values published in patent US7157498B2, “Diamines having a CaSR modulating activity” (Centre National de la Recherche Scientifique (CNRS), priority 2000, dated 2007).

Legend:
[1] = molecular target: T1, CaSR (Rattus norvegicus, UniProt P48442); experiment: Accumulation of tritiated inositol phosphates [3H]IP induced by 9 mM extracellular Ca2+ in transfected CHO(CaSR) cells; assay type: cell-based; conditions: for remaining activity at 10 µM: 0.5 h, compounds at 10 μM, induced by 9 mM Ca2+, control = 9 mM (Ca2+)e alone = 100, mean of 2 to 4 experiments, read-out: Accumulation of [^3H]IP % relative to the control; for remaining activity at 10 µM / inhibition of the accumulation of [^3H]IP induced by 9 mM (Ca^2+)e: CHO(CaSR) cells; for inhibition of the accumulation of [^3H]IP induced by 9 mM (Ca^2+)e / type of activity on production of [^3H]IP (calcimimetic/calcilytic): 10 μM compound, 9 mM (Ca2+)e
T1 construct: expressed in transfected cells; host or cells: CHO (Chinese hamster ovary) cells
T1 sequence (P48442 20-1079): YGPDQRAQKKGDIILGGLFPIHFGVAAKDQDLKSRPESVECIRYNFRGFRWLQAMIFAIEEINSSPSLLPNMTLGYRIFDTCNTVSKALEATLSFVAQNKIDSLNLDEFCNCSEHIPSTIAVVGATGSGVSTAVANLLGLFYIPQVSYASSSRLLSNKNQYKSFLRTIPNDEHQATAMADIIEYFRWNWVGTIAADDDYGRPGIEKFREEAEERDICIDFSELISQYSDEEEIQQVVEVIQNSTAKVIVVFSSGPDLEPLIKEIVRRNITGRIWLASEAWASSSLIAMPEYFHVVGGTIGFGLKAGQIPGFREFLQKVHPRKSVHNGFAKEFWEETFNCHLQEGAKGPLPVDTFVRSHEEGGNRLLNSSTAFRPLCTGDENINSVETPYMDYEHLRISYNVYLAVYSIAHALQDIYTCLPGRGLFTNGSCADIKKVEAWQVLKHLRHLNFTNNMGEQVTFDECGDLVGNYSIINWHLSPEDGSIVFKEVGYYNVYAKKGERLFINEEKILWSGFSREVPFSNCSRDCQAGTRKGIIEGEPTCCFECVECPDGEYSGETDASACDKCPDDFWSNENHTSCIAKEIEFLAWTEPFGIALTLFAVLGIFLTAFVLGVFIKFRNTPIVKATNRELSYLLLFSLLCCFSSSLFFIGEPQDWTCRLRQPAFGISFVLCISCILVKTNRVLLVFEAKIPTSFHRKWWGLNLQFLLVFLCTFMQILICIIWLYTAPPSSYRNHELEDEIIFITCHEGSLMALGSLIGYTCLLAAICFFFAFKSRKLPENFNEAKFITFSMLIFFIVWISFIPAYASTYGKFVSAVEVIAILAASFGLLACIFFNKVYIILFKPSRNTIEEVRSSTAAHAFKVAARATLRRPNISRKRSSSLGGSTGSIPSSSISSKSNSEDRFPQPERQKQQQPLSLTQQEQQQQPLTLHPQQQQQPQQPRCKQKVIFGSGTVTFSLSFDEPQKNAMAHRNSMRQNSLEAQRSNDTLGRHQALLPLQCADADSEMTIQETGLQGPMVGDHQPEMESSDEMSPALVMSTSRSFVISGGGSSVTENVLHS
From the text: Complementary DNA encoding rat CaSR has been isolated from a rat striatum cDNA library (Ruat et al., Proc. Natl. Acad. Sci., 1995, vol. 92, p. 3161–3165). This receptor is identical with respect to its amino acid sequence to that expressed in the other tissues. Transfected Chinese hamster ovary_(CHO) cells expressing rat CaSR(CHO(CaSR)) have been characterized and the chemical signals (second messengers) induced by the activation of this receptor have been analyzed. Thus, a biochemical test which makes it possible to measure the accumulation of tritiated inositol phosphates [^3H]IP in response to the activation of the receptor has been developed (Ruat et al., J. Biol. Chem., 1996, vol. 271, p. 5972–5975; Ferry et al., Biochem. Biophys. Res. Commun., 1997, vol. 238, p. 866–873).
The technique for measuring the accumulation of tritiated inositol phosphates [^3H]IP which is used is that described in Ruat et al., J. Biol. Chem., 1996, vol. 271, p. 5972-5975. Only the mode of incubating the compounds is modified. After a preincubation of 15 min of the compounds according to the invention in the presence of a basal concentration of (Ca^2+)e equal to 2 mM, the compounds are incubated for 30 min in the presence of a (Ca^2+)e concentration of 4 or 9 mM. The results, mean of 2 to 4 independent experiments each carried out in triplicate, are grouped together in Table 2.
The activity of the compounds is expressed as a percentage of the control activity measured in the presence of (Ca^2+)e alone of concentration 4 mM or 9 mM.

[2] = test system: cell proliferation in the parathyroid gland; conditions: rat model reproducing chronic renal insufficiency; cited from earlier work
[3] = clinical trials Phase I-II; cited from earlier work
[4] = molecular target: T1, CaSR; experiment: Specificity: [3H]IP accumulation by compound alone in CHO(CaSR) cells, relative to basal level at 2 mM Ca2+; assay type: cell-based; conditions: compound alone at 10 μM; CHO(CaSR) cells (sentence also names control CHO(WT*) cells)
Method: (§1) To assess the specificity of the antagonist activity of the molecules according to the invention, the effect of one of them, PHD 263, was studied under various calcium conditions, in the presence or otherwise of ATP on CHO(WT*) and CHO(CaSR) cells. […] The accumulation of tritiated inositol phosphates is expressed as a percentage of the basal level observed in the presence of 2 mM Ca^2+ (100) in the CHO(WT*) or CHO(CaSR) cells.

[5] = test system: CHO(WT*) cells; experiment: Specificity: [3H]IP accumulation in control CHO(WT*) cells not expressing CaSR, various calcium, with or without ATP; assay type: cell-based, Chinese hamster; conditions: PHD 263 10 μM
Method: as §1
PHD 263 (10 μM) has the same effect on the [^3H]IP response in the CHO(WT*) cells in the presence of 2 or 4 mM calcium, indicating an absence of a nonspecific effect of the compound linked to the variation of [Ca^2+]e.

Row | SMILES | remaining activity at 10 µM [1] | other results
1 | COc1ccc(OC)c(S(=O)(=O)NC2CCCC[C@@H]2NC(C)c2cccc3ccccc23)c1 (some centres unmarked) [AK 115] | 100 ± 4% | –
2 | CC(N[C@H]1CCCCC1NS(=O)(=O)c1ccc(Cl)c(Cl)c1Cl)c1cccc2ccccc12 (some centres unmarked) [AK 117] | 42 ± 5% | –
3 | COc1cccc([C@@H](C)NCCCc2ccccc2Cl)c1 [NPS-R-568] | – | reduction of cell proliferation observed in the parathyroid gland [2]: 20–50%; bioavailability [3]: low bioavailability
4 | COc1ccc(S(=O)(=O)NC2CCCC[C@@H]2NC(C)c2cccc3ccccc23)cc1.Cl (some centres unmarked) [PHD 263, N1-(4-methoxybenzenesulfonyl)-N-2-[1-(1-naphthyl)ethyl]cyclohexane-1,2-diamine] | 37 ± 5% | inhibition of the accumulation of [^3H]IP induced by 9 mM (Ca^2+)e [1]: 64%; melting point: 135 to 140 °C (dec.); accumulation of [^3H]IP as percentage of the basal level observed at 2 mM Ca2+ (100) [4]: 124±10%; effect on the ATP-induced [^3H]IP response ([5]; CHO(WT) cells, in the presence of ATP): adds to that of ATP; effect on the [^3H]IP response at 2 versus 4 mM calcium ([5]; CHO(WT*) cells, 2 or 4 mM calcium): same effect
5 | CC(N[C@H]1CCCCC1NCc1ccccc1Cl)c1cccc2ccccc12.Cl.Cl (some centres unmarked) [PHD 346] | 110 ± 6% | type of activity on production of [^3H]IP (calcimimetic/calcilytic) [1]: calcimimetic activity
6 | CC(N[C@H]1CCCCC1NCc1ccc(F)cc1)c1cccc2ccccc12.Cl.Cl (some centres unmarked) [PHD 348] | 119 ± 12% | type of activity on production of [^3H]IP (calcimimetic/calcilytic) [1]: calcimimetic activity
7 | COc1ccc(S(=O)(=O)NC2CCCC[C@@H]2NC(C)c2cccc3ccccc23)cc1OC (some centres unmarked) [PHD 349] | 64 ± 5% | –
8 | CC(N[C@H]1CCCCC1NS(=O)(=O)c1ccc(OC(F)(F)F)cc1)c1cccc2ccccc12.Cl (some centres unmarked) [PHD 401] | 18 ± 3% | inhibition of the accumulation of [^3H]IP induced by 9 mM (Ca^2+)e [1]: 82%
9 | CC(N[C@H]1CCCCC1NS(=O)(=O)c1ccc2ccccc2c1)c1cccc2ccccc12 (some centres unmarked) [PHD 404] | 39 ± 7% | –
10 | CC(N[C@H]1CCCCC1NS(=O)(=O)c1ccccc1)c1cccc2ccccc12 (some centres unmarked) [PHD 408] | 56 ± 4% | –

The next lines start with results.

Row | remaining activity at 10 µM [1] | SMILES | other results
11 | 40 ± 5% | CC(N[C@H]1CCCCC1NS(=O)(=O)c1cccc(Cl)c1)c1cccc2ccccc12 (some centres unmarked) [AK 116] | –
12 | 74 ± 2% | CC(N[C@H]1CCCCC1NS(=O)(=O)c1ccccc1Cl)c1cccc2ccccc12 (some centres unmarked) [PHD 350] | inhibition of the accumulation of [^3H]IP induced by 9 mM (Ca^2+)e [1]: 25%
13 | 43 ± 1% | CC(N[C@H]1CCCCC1NS(=O)(=O)c1ccc([N+](=O)[O-])cc1)c1cccc2ccccc12 (some centres unmarked) [PHD 397] | –
14 | 21 ± 1% | CC(N[C@H]1CCCCC1NS(=O)(=O)c1ccc(C(F)(F)F)cc1)c1cccc2ccccc12 (some centres unmarked) [PHD 403] | –
15 | 28 ± 1% | CC(N[C@H]1CCCCC1NS(=O)(=O)c1ccc(Cl)cc1)c1cccc2ccccc12 (some centres unmarked) [PHD 406] | –
16 | 75 ± 10% | COc1ccc(S(=O)(=O)NC2CC=CC[C@@H]2NC(C)c2cccc3ccccc23)cc1 (some centres unmarked) [PHD 511] | –
